Columns and labels:
Assay type in all cases: in vivo
[1] = tested on: ducksalad (Heteranthera limosa); experiment: Test B flooded paddy test, plant response rating; conditions: 250 g ai/ha; Flood; scale of 0 to 100 where 0 is no effect and 100 is complete control; 13 to 15 days
Method in brief: (§1)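 Under a constant 3 cm flood, test compounds went directly into the paddy water. Following 13 to 15 days of greenhouse growth, treated species and controls were compared by eye.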

rice (Oryza sativa) = experiment: Test B flooded paddy test, plant response rating; conditions: 250 g ai/ha; Flood; scale of 0 to 100 where 0 is no effect and 100 is complete control; 13 to 15 days
Method in brief: as §1

[2] = tested on: sedge, umbrella (small-flower umbrella sedge, Cyperus difformis); experiment: Test B flooded paddy test, plant response rating; conditions: 250 g ai/ha; Flood; scale of 0 to 100 where 0 is no effect and 100 is complete control; 13 to 15 days
Method in brief: as §1

[3] = tested on: blackgrass (Alopecurus myosuroides); experiment: Test C preemergence, plant response rating; conditions: Preemergence
Method in brief: (§2)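 Both timings shared one formulation, a non-phytotoxic solvent mixture with surfactant, and a greenhouse period of 13 to 15 d. Preemergence used seeded loam/sand or silt loam soil, postemergence used 2 to 18 cm plants; visual ratings ran from 0 (no effect) to 100 (complete control).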

corn (Zea mays) = experiment: Test C preemergence, plant response rating; conditions: Preemergence
Method in brief: as §2

[4] = tested on: crabgrass, large (large crabgrass, Digitaria sanguinalis); experiment: Test C preemergence, plant response rating; conditions: Preemergence
Method in brief: as §2

[5] = tested on: foxtail, giant (giant foxtail, Setaria faberii); experiment: Test C preemergence, plant response rating; conditions: Preemergence
Method in brief: as §2

[6] = tested on: lambsquarters (Chenopodium album); experiment: Test C preemergence, plant response rating; conditions: Preemergence
Method in brief: as §2

[7] = tested on: morningglory (Ipomoea coccinea); experiment: Test C preemergence, plant response rating; conditions: Preemergence
Method in brief: as §2

[8] = tested on: nutsedge, yellow (yellow nutsedge, Cyperus esculentus); experiment: Test C preemergence, plant response rating; conditions: Preemergence
Method in brief: as §2

[9] = tested on: oilseed rape (Brassica napus); experiment: Test C preemergence, plant response rating; conditions: Preemergence
Method in brief: as §2

[10] = tested on: ragweed (common ragweed, Ambrosia elatior); experiment: Test C preemergence, plant response rating; conditions: Preemergence
Method in brief: as §2

[11] = tested on: ryegrass, Italian (Italian ryegrass, Lolium multiflorum); experiment: Test C preemergence, plant response rating; conditions: Preemergence
Method in brief: as §2

soybean (Glycine max) = experiment: Test C preemergence, plant response rating; conditions: Preemergence
Method in brief: as §2

[12] = tested on: velvetleaf (Abutilon theophrasti); experiment: Test C preemergence, plant response rating; conditions: Preemergence
Method in brief: as §2

[13] = tested on: waterhemp (common waterhemp, Amaranthus rudis); experiment: Test C preemergence, plant response rating; conditions: Preemergence
Method in brief: as §2

[14] = tested on: wheat (winter wheat, Triticum aestivum); experiment: Test C preemergence, plant response rating; conditions: Preemergence
Method in brief: as §2

[15] = tested on: surinam grass (Brachiaria decumbens); experiment: Test C preemergence, plant response rating
[16] = tested on: wild poinsettia (Euphorbia heterophylla); experiment: Test C preemergence, plant response rating
[17] = tested on: oat, wild (wild oat Avena fatua); experiment: Test C preemergence, plant response rating

N#Cc1cccc(Oc2ncc(Cl)cn2)c1COCCC(F)(F)F [Compound 80]
Plant response rating, Ducksalad [1]: 100 | Plant response rating, Rice (rice (Oryza sativa)): 55 | Plant response rating, Sedge, Umbrella [2]: 100 | Plant response rating, Blackgrass ([3]; 62 g ai/ha, scale of 0 to 100): 70 | Plant response rating, Blackgrass ([3]; 125 g ai/ha, scale of 0 to 100): 90 | Plant response rating, Blackgrass ([3]; 16 g ai/ha, scale 0 to 100): 5 | Plant response rating, Blackgrass ([3]; 31 g ai/ha, scale 0 to 100): 10 | Plant response rating, Corn (corn (Zea mays); 62 g ai/ha, scale of 0 to 100): 5 | Plant response rating, Corn (corn (Zea mays); 125 g ai/ha, scale of 0 to 100): 20 | Plant response rating, Corn (corn (Zea mays); 16 g ai/ha, scale 0 to 100): 0 | Plant response rating, Corn (corn (Zea mays); 31 g ai/ha, scale 0 to 100): 5 | Plant response rating, Crabgrass, Large ([4]; 62 g ai/ha, scale of 0 to 100): 100 | Plant response rating, Crabgrass, Large ([4]; 125 g ai/ha, scale of 0 to 100): 98 | Plant response rating, Crabgrass, Large ([4]; 16 g ai/ha, scale 0 to 100): 55 | Plant response rating, Crabgrass, Large ([4]; 31 g ai/ha, scale 0 to 100): 80 | Plant response rating, Foxtail, Giant ([5]; 62 g ai/ha, scale of 0 to 100): 85 | Plant response rating, Foxtail, Giant ([5]; 125 g ai/ha, scale of 0 to 100): 100 | Plant response rating, Foxtail, Giant ([5]; 31 g ai/ha, scale 0 to 100): 40 | Plant response rating, Lambsquarters ([6]; 125 g ai/ha, scale of 0 to 100): 98 | Plant response rating, Lambsquarters ([6]; 31 g ai/ha, scale 0 to 100): 70 | Plant response rating, Lambsquarters ([6]; 62 g ai/ha, scale 0 to 100): 95 | Plant response rating, Morningglory ([7]; 125 g ai/ha, scale of 0 to 100): 75 | Plant response rating, Morningglory ([7]; 31 g ai/ha, scale 0 to 100): 20 | Plant response rating, Morningglory ([7]; 62 g ai/ha, scale 0 to 100): 40 | Plant response rating, Nutsedge, Yellow ([8]; 125 g ai/ha, scale of 0 to 100): 35 | Plant response rating, Nutsedge, Yellow ([8]; 31 g ai/ha, scale 0 to 100): 0 | Plant response rating, Nutsedge, Yellow ([8]; 62 g ai/ha, scale 0 to 100): 0 | Plant response rating, Oilseed Rape ([9]; 125 g ai/ha, scale of 0 to 100): 100 | Plant response rating, Oilseed Rape ([9]; 31 g ai/ha, scale 0 to 100): 80 | Plant response rating, Oilseed Rape ([9]; 62 g ai/ha, scale 0 to 100): 70 | Plant response rating, Ragweed ([10]; 125 g ai/ha, scale of 0 to 100): 20 | Plant response rating, Ragweed ([10]; 31 g ai/ha, scale 0 to 100): 0 | Plant response rating, Ragweed ([10]; 62 g ai/ha, scale 0 to 100): 5 | Plant response rating, Ryegrass, Italian ([11]; 125 g ai/ha, scale of 0 to 100): 25 | Plant response rating, Ryegrass, Italian ([11]; 31 g ai/ha, scale 0 to 100): 0 | Plant response rating, Ryegrass, Italian ([11]; 62 g ai/ha, scale 0 to 100): 5 | Plant response rating, Soybean (soybean (Glycine max); 125 g ai/ha, scale of 0 to 100): 85 | Plant response rating, Soybean (soybean (Glycine max); 31 g ai/ha, scale 0 to 100): 20 | Plant response rating, Soybean (soybean (Glycine max); 62 g ai/ha, scale 0 to 100): 40 | Plant response rating, Velvetleaf ([12]; 125 g ai/ha, scale of 0 to 100): 100 | Plant response rating, Velvetleaf ([12]; 31 g ai/ha, scale 0 to 100): 55 | Plant response rating, Velvetleaf ([12]; 62 g ai/ha, scale 0 to 100): 70 | Plant response rating, Waterhemp ([13]; 125 g ai/ha, scale of 0 to 100): 100 | Plant response rating, Waterhemp ([13]; 31 g ai/ha, scale 0 to 100): 100 | Plant response rating, Waterhemp ([13]; 62 g ai/ha, scale 0 to 100): 100 | Plant response rating, Wheat ([14]; 125 g ai/ha, scale of 0 to 100): 15 | Plant response rating, Wheat ([14]; 31 g ai/ha, scale 0 to 100): 0 | Plant response rating, Wheat ([14]; 62 g ai/ha, scale 0 to 100): 0 | Plant response rating, Surinam Grass ([15]; 31 g ai/ha, scale 0 to 100): 50 | Plant response rating, Surinam Grass ([15]; 62 g ai/ha, scale 0 to 100): 60 | Plant response rating, Surinam Grass ([15]; 125 g ai/ha, scale of 0 to 100): 98 | Plant response rating, Poinsettia, Wild ([16]; 31 g ai/ha, scale 0 to 100): 30 | Plant response rating, Poinsettia, Wild ([16]; 62 g ai/ha, scale 0 to 100): 40 | Plant response rating, Poinsettia, Wild ([16]; 125 g ai/ha, scale of 0 to 100): 85 | Plant response rating, Oat, Wild ([17]; 31 g ai/ha, scale 0 to 100): 0 | Plant response rating, Oat, Wild ([17]; 62 g ai/ha, scale 0 to 100): 10 | Plant response rating, Oat, Wild ([17]; 125 g ai/ha, scale of 0 to 100): 30
